Literature values in patent US20090075956A1 (priority 2005, published 2009).
Structures can show the parent of a compound that is named as a salt.

solubility in alcohol (alcohol) | solubility in ether (ether) | SMILES | solubility in water | solubility in organic solvents (organic solvents such as ethanol, ether and chloroform)
slightly soluble | very slightly soluble | NNc1nncc2ccccc12 [Hydralazine hydrochloride, hydralazine hydrochloride] | soluble | –
– | – | O=[N+]([O-])O[C@H]1CO[C@H]2[C@@H]1OC[C@H]2O[N+](=O)[O-] [Diluted isosorbide dinitrate, 1,4,3,6-dianhydro-D-glucitol-2,5-dinitrate] | sparingly soluble | freely soluble
